Experimental data taken from patent publication US8680126B2, “Fluorinated thiazoles for use in treating cancer” (Universitat de Barcelona, priority 2010, dated 2014).

Assays:
[1] = test system: B-CLL cells from patients with wild-type TP53; test: Dose-response analysis of apoptosis by flow cytometry in B-CLL cells, wild-type TP53; assay type: cell-based, human; details: 24 hours; for induction of apoptosis (dose-response): B-CLL cells wild-type TP53, doses from 1 to 20 μM
Protocol: (§1) Jurkat, Ramos, TK6 and CLL cells were grown in RPMI-1640 medium, and HeLa cells in DMEM medium, both containing 10% heat-inactivated fetal calf serum, 1% glutamine, and 1% penicillin-streptomycin. MDA-MB 231 cells were grown in DMEM/F-12 medium containing additionally 1% pyruvate. Hep3B cells were maintained in MEM medium supplemented with 10% fetal bovine serum. All were maintained at 37° C. in humidified atmosphere containing 5% carbon dioxide.
(§2) Peripheral blood lymphocytes from CLL patients were obtained from the Haematology Unit at the IDIBELL-Hospital de Bellvitge, L'Hospitalet de Llobregat, Barcelona, Spain. CLL was diagnosed according to standard clinical and laboratory criteria. Written informed consent was obtained from all patients, in accordance with the Hospital de Bellvitge's Ethical Committee. Mononuclear cells from heparinized peripheral blood samples were isolated by centrifugation on a Ficoll-Hypaque (Seromed, Berlin, Germany) gradient. The purity of CLL samples was evaluated with allophycocyanin (APC)-conjugated anti-CD3 and phycoerythrin (PE)-conjugated anti-CD19 (Becton Dickinson, Frankiln Lakes, N.J., USA). Data were analysed by flow cytometry and the analysis was performed with the appropriate software.
(§3) 0.25-0.3×10^6 cells were washed in phosphate-buffered saline (PBS) and resuspended in 100 μl of annexin binding buffer and incubated with 1 μl of annexin V-Fluorescein-5-isothiocyanate (FITC) or annexin V-Allophycocyanin (APC). After 20 min of incubation in the dark at room temperature, 100 μl of annexin binding buffer with 5 μl of propidium iodide (PI) (20 μg/ml) was added just before flow cytometric analysis. Data were analyzed using the appropriate software. Cell viability was measured by analysis of phosphatidylserine exposure and PI uptake and it is expressed as the percentage of annexin-V and PI double-negative cells.
B-CLL cells from patients with wild-type TP53 were incubated with a range of doses from 1 to 20 μM of compounds Ia and Id for 24 hours. […]

[2] = test system: T98-G cells (glioblastoma cell line with mutated TP53); test: Dose-response analysis of apoptosis by flow cytometry in T98-G cells; assay type: cell-based, human; details: 24 hours; for IC50: Homo sapiens, T98G, flow cytometry; for induction of apoptosis (dose-response): T98-G, doses from 2 to 60 μM
Protocol: (§4) The human cell lines Jurkat (T lymphocytes from acute T cell leukemia), Ramos (B lymphocytes from Burkitt's lymphoma), TK6 (human lymphoblast cell line) HeLa (epithelial cervical carcinoma cell line), MDA-MB 231 (epithelial breast adenocarcinoma cell line), T98-G (glioblastoma cell line) and Hep3B (hepatocellular carcinoma cell line) were obtained from the European Collection of Cell Cultures.
as §3
T98-G cells (glioblastoma cell line with mutated TP53) were incubated with a range of doses from 2 to 60 μM of compounds Ia and Id for 24 hours.
(§5) The IC50 of compounds Ia and Id was calculated at 24 hours by flow cytometry analysis, except for Hep3B where crystal violet assay was used. The results are expressed in Table 4 as the percentage of viable cells in respect to untreated cells at 24 hours.

[3] = test system: B-CLL cells; test: IC50 by flow cytometry in primary B-CLL cells; assay type: cell-based; details: Homo sapiens, 24 hours
Protocol: as §1
as §2, with “Written informed consent was obtained from all patients, in accordance with the Hospital de Bellvitge's Ethical Committee. Mononuclear cells from heparinized peripheral blood samples were isolated by centrifugation on a Ficoll-Hypaque (Seromed, Berlin, Germany) gradient.” left out
(§6) 0.25-0.3×10^6 cells were washed in phosphate-buffered saline (PBS) and resuspended in 100 μl of annexin binding buffer and incubated with 1 μl of annexin V-Fluorescein-5-isothiocyanate (FITC) or annexin V-Allophycocyanin (APC). […] Data were analyzed using the appropriate software. […]
The IC50 of compounds Ia and Id was calculated at 24 hours by flow cytometry analysis, except for Hep3B where crystal violet assay was used. […]

[4] = test system: Hep3B cells (hepatocellular carcinoma cell line with deleted TP53); test: Cell viability by crystal violet assay in Hep3B cells; assay type: cell-based, human; details: 24 hours; for IC50: Homo sapiens, crystal violet assay; for loss of cell viability (dose-response): doses from 2 to 40 μM, crystal violet
Protocol: as §4, §1
This method allows quantifying the amount of cells that survive after a toxic process, and it consists on cell staining with a colorant, crystal violet. This method is only useful when working with adherent cells that detached after undergoing a toxic process.
After the cells were incubated, in 12 or 24-well plates, with the different stimuli or inhibitors, the cell media was removed, and cells were washed twice with PBS. Then, a solution of Crystal violet at 0.2% (w/v) in 2% ethanol was added during 30 minutes. Following this, the staining solution was removed, and the wells were washed several times with PBS or distilled water until the excess staining that was not incorporated into the cells was eliminated. The plate was air-dried, and the stained cells were lysed in 10% SDS. By spectrophotometric analysis, the absorbance was measured at 595 nm.
The results were then calculated as the percentage of viable cells relative to control cells (cells incubated in the absence of treatment) at the indicated times.
Hep3B cells (hepatocellular carcinoma cell line with deleted TP53) were incubated with a range of doses from 2 to 40 μM of compounds Ia and Id for 24 hours.
as §5

[5] = test system: TK6 cells (human lymphoblast cell line with wild-type TP53); test: Dose-response analysis of apoptosis by flow cytometry in TK6 cells; assay type: cell-based; details: 24 hours; for IC50: Homo sapiens, TK6, flow cytometry; for induction of apoptosis (dose-response): TK6, doses from 2 to 40 μM
Protocol: as §4, §1, §3
TK6 cells (human lymphoblast cell line with wild-type TP53) were incubated with a range of doses from 2 to 40 μM of compounds Ia and Id for 24 hours.
as §5

[6] = test system: HeLa cells (epithelial cervical carcinoma cell line with inactivated p53); test: Dose-response analysis of apoptosis by flow cytometry in HeLa cells; assay type: cell-based; details: Homo sapiens, 24 hours, flow cytometry (annexin-V negative cells in respect to untreated cells)
Protocol: as §4, §1, §3
(§7) Dose-response analysis was performed using Jurkat mutated-TP53 cancer cells and inactivated p53 cancer cell line HeLa.
(§8) Cell viability was measured by flow cytometry and it is expressed as the percentage of nonapoptotic cells (annexin-V negative) in respect to untreated cells at 24 hours. Therefore, values under 100% are indicative of apoptosis or loss of cell viability.
HeLa cells (epithelial cervical carcinoma cell line with inactivated p53) were incubated with a range of doses from 2 to 40 μM of each compound for 24 hours.
(§9) The IC50 at 24 hours was calculated for each compound using flow cytometry analysis. The results are expressed in Table 3 as the percentage of nonapoptotic cells (annexin-V negative) in respect to untreated cells at 24 hours.
HeLa cells (epithelial cervical carcinoma cell line with inactivated p53) were incubated with a range of doses from 5 to 40 μM of each compound for 24 hours.

[7] = test system: B-CLL cells from patients with mutated TP53; test: Dose-response analysis of apoptosis by flow cytometry in B-CLL cells, mutated TP53; assay type: cell-based, human; details: B-CLL cells mutated TP53, doses from 1 to 20 μM, 24 hours
Protocol: as §1
as §2, with “Mononuclear cells from heparinized peripheral blood samples were isolated by centrifugation on a Ficoll-Hypaque (Seromed, Berlin, Germany) gradient.” left out
as §6

[8] = test system: Jurkat cell line (T lymphocytes from acute T cell leukemia, mutated TP53); test: Screening assay in Jurkat cells by measuring cell viability (flow cytometry), single dose; assay type: cell-based, human; design: key: “+” means low activity; “++” means good activity; “+++” means very good activity; “−” means no activity; details: single dose of 40 μM, 24 hour-incubation
Protocol: as §4, §1, §3
A screening of the effect of compounds Ia-If was performed in Jurkat cell line (T lymphocytes form acute T cell leukemia) at a single dose of 40 μM for 24 hour-incubation.
Jurkat cells were selected among other leukemic tumor cell lines because they have the protein TP53 mutated.
Every compound mentioned above was dissolved in the minimum amount of DMSO necessary to be dissolved. Cell viability was measured by flow cytometry analysis. […] Thus, all the observed effects on cell viability are due to the compounds' activity.
The results are summarized in Table 2: “+” means low activity; “++” means good activity and “+++” means very good activity; “−” means no activity.

[9] = test system: Jurkat cells (T lymphocytes from acute T cell leukemia with mutated TP53); test: Dose-response analysis of apoptosis by flow cytometry in Jurkat cells; assay type: cell-based; details: Homo sapiens, 24 hours, flow cytometry (annexin-V negative cells in respect to untreated cells)
Protocol: as §4, §1, §3, §7, §8
Jurkat cells (which are T lymphocytes from acute T cell leukemia with mutated TP53) were incubated with a range of doses from 1 to 40 μM of each compound for 24 hours.
as §9
Jurkat cells (which are T lymphocytes from acute T cell leukemia with mutated TP53) were incubated with a range of doses from 5 to 40 μM of each compound for 24 hours.

[10] = test system: Ramos cells (B lymphocytes from Burkitt's lymphoma with mutated TP53); test: Dose-response analysis of apoptosis by flow cytometry in Ramos cells; assay type: cell-based, human; details: 24 hours; for IC50: Homo sapiens, flow cytometry; for induction of apoptosis (dose-response): doses from 2 to 40 μM
Protocol: as §4, §1, §3
Ramos cells (B lymphocytes from Burkitt's lymphoma with mutated TP53) were incubated with a range of doses from 2 to 40 μM of compounds Ia and Id for 24 hours.
as §5

[11] = test system: MDA-MB-231 cells (epithelial breast adenocarcinoma cell line with mutated TP53); test: Dose-response analysis of apoptosis by flow cytometry in MDA-MB-231 cells; assay type: cell-based, human; details: 24 hours; for IC50: Homo sapiens, MDA-MB-231, flow cytometry; for induction of apoptosis (dose-response): MDA-MB-231, doses from 2 to 60 μM
Protocol: as §4, §1, §3
MDA-MB-231 cells (epithelial breast adenocarcinoma cell line with mutated TP53) were incubated with a range of doses from 2 to 60 μM of compounds Ia and Id for 24 hours.
as §5

[12] = test system: T cells (CLL cells from patients with wild-type TP53); test: Dose-response analysis by flow cytometry in T cells of CLL patients, wild-type TP53; assay type: cell-based, human; details: doses from 5 to 40 μM, 24 hours
Protocol: Viability was measured by flow cytometry and it is expressed as the percentage of nonapoptotic cells (annexin-V FITC negative). A representative patient is shown.
as §1
Peripheral blood lymphocytes from CLL patients were obtained from the Haematology Unit at the IDIBELL-Hospital de Bellvitge, L'Hospitalet de Llobregat, Barcelona, Spain. […] The purity of CLL samples was evaluated with allophycocyanin (APC)-conjugated anti-CD3 and phycoerythrin (PE)-conjugated anti-CD19 (Becton Dickinson, Frankiln Lakes, N.J., USA). Data were analysed by flow cytometry and the analysis was performed with the appropriate software.
as §6

SMILES	induction of apoptosis (dose-response) [1]	IC50 [2] [µM]	induction of apoptosis (dose-response) [2]	IC50 [3] [µM]	IC50 [4] [µM]	loss of cell viability (dose-response) [4]	IC50 [5] [µM]	induction of apoptosis (dose-response) [5]	IC50 [6] [µM]	induction of apoptosis (dose-response) [7]	Biological activity [8]	IC50 [9] [µM]	IC50 [10] [µM]	induction of apoptosis (dose-response) [10]	IC50 [11] [µM]	induction of apoptosis (dose-response) [11]	induction of apoptosis (dose-response) in B cells ([1]; CLL cells wild-type TP53, B cells, doses from 5 to 40 μM)	sensitivity of T cells compared with B cells [12]
Fc1nc(C2=NC(F)(F)C(F)(c3ccccc3)S2)sc1-c1ccccc1 (centres unmarked) [Ia, 4-fluoro-5-phenyl-2-(4,4,5-trifluoro-5-phenyl-4,5-dihydrothiazol-2-yl)thiazole]	induced apoptosis in a dose-dependent manner	50	induced apoptosis in a dose-dependent manner	4	14	induced a loss on cell viability in a dose-dependent manner	8	induced apoptosis in a dose-dependent manner	20	induced apoptosis in a dose-dependent manner	+++	4	4.5	induced apoptosis in a dose-dependent manner	16	induced apoptosis in a dose-dependent manner		
FC1(F)N=C(c2ncc(-c3ccccc3)s2)SC1(F)c1ccccc1 (centres unmarked) [Ib, 5-phenyl-2-(4,4,5-trifluoro-5-phenyl-4,5-dihydrothiazol-2-yl)thiazole]									8		+++	3						
FC1(F)N=C(c2ccccc2)SC1(F)c1ccccc1 (centres unmarked) [Ic, 4,4,5-trifluoro-2,5-diphenyl-4,5-dihydrothiazole]									10		++	8					induced apoptosis in a dose-dependent manner	less sensitive
FC1(F)N=C(c2ccc(Cl)cc2)SC1(F)c1ccc(Cl)cc1 (centres unmarked) [Id, 4,4,5-trifluoro-2,5-bis(4-chlorophenyl)-4,5-dihydrothiazole]	induced apoptosis in a dose-dependent manner	7.5	induced apoptosis in a dose-dependent manner	5	5	induced a loss on cell viability in a dose-dependent manner	2.5	induced apoptosis in a dose-dependent manner	1.75	induced apoptosis in a dose-dependent manner	+++	3.5	3.5	induced apoptosis in a dose-dependent manner	4	induced apoptosis in a dose-dependent manner		
FC1(F)N=C(c2ccc(-c3ccccc3)cc2)SC1(F)c1ccccc1 (centres unmarked) [Ie, 4,4,5-trifluoro-2-(biphenyl-4-yl)-5-phenyl-4,5-dihydrothiazole]									3.5		+	20						
CCOC(=O)c1ccc(C2=NC(F)(F)C(F)(c3ccc(C)cc3)S2)cc1 (centres unmarked) [If, ethyl 4-(4,4,5-trifluoro-5-(p-tolyl)-4,5-dihydrothiazol-2-yl)benzoate]									17		++	8						
Clc1ccc(-c2cnc(-c3ccc(Cl)cc3)s2)cc1 [comparative Ad, 2,5-bis(4-chlorophenyl)thiazole, reference compound]											−							
